Legend:
HepG2 [1] = experiment: MTS cytotoxicity assay (CellTiter 96 AQueous); format: cell-based; details: Homo sapiens, 48 h exposure
Experimental: (§1) Hep3B and HepG2 cells were grown in mixture of Dulbecco’s Modified Eagle Medium (D-MEM) (high glucose) (Gibco BRL, Carlsbad, CA, USA) and Nutrient Mixture F-12 Ham (Sigma, St. Louis, MO, USA) containing penicillin (50 IU/ml)–streptomycin ([…]) and 10% fetal bovine serum. For cytotoxicity assays, cells were seeded at a density of 10.000 cells per well into 96-well cell culture plates and maintained in a humidified atmosphere of 95% air and 5% CO2 for 12 h, then treated with different concentrations of Ac-2010 or Ac-915. MTS (3-(4,5-dimethylthiazol-2-yl)-5-(3-carboxymethoxy-phenyl)-2-(4-sulfophenyl)-2H-tetrazolium) assay was applied to drug treated and control (0.2% DMSO) cells with CellTiter 96® AQueous Assay (Promega, Madison, WI) according to the manufacturer’s protocol.
(§2) Their cytotoxic effects on human hepatocellular carcinoma cell lines (namely: HepG2, Hep3B and Huh7) were measured by using the MTS assay. […] Both Ac-915 and Ac-2010 induced cell death of liver cancer cells at sub- or low micromolar ranges.

Huh7 [2] = experiment: MTS cytotoxicity assay (CellTiter 96 AQueous); format: cell-based; details: Homo sapiens, Huh-7, 48 h exposure
Experimental: as §1, §2

Hep3B [3] = experiment: MTS cytotoxicity assay (CellTiter 96 AQueous); format: cell-based; details: Homo sapiens, 48 h exposure
Experimental: as §1, §2

Hep3B [4] = experiment: ROS determination (DCFDA fluorescence, FACS); format: cell-based, human
Experimental: ROS generation was determined by the increase in DCFDA (2',7'-dichlorodihydrofluorescein diacetate, Sigma) fluorescence after drug stimulation. HepG2 cells were washed, resuspended in 1% bovine serum albumin in Hanks buffered saline solution (BSA-HBSS) at 10^6 cells/mL and maintained at 37°C for analysis. Cells were treated with the indicated drugs (Ac-915, Ac-2010). DCFDA was added 60 min prior to harvest, at 2 μM final concentration and intracellular ROS production was measured by using a fluorescence activated cell sorter (Beckton Dickinson) with 20,000 events/test. All the other parameters and calculations were as described before.
Toxic compounds and numerous anticancer agents interfere with chaperone and ER functions leading to cellular stress which is manifested by elevated reactive oxygen species (ROS) and dramatic decrease in the anti-oxidant, glutathione (GSH) level. To investigate whether Ac-915 and Ac-2010 exert a pro-oxidative effect as determined earlier for other amino-trifluoro-phthalimides and “redox-reactive” thalidomide analogs, we measured the presence of ROS in human hepatocellular carcinoma cells (Hep3B) Figure 4a. To reveal the correlation of depletion of glutathione and ROS production of the analogs we determined the intracellular concentrations of glutathione. […]

HepG2 cell migration = experiment: Real-time cell migration assay, RTCA DP xCELLigence (CIM-plate 16); format: cell-based, human
HepG2 [5] = experiment: Real-time cytotoxicity, xCELLigence System (RT-CES); format: cell-based, human; details: for Cytotoxic effect in real time (cell index): HepG2, impedance monitored for 48 h
Experimental: (§3) Cytotoxicity and cell migration was monitored with the real-time cell electronic sensing, xCELLigence System (RT-CES, Acea-Roche). Cytotoxicity effects of Ac-2010 and Ac-915 compounds were tested on two different hepatocellular carcinoma cell lines (HepG2 and Hep3B). The RT-CES 96-well E-plate was coated with gelatin and then washed twice with PBS. Growth media (respective to cell types) were then gently dispensed into each well of the 96-well E-plate for background readings by the RT-CES system prior to addition of cell suspension at a density of 6000 cells/well. Devices containing the cell suspension were kept at 37° in a CO2 incubator for 8 h prior to treatment with different concentrations of Ac-2010 and Ac-915. Cell growth was monitored for 48 h by measurements of electrical impedance every 5 min.
(§4) Cytotoxic effects of Ac-915 and Ac-2010 compounds were also tested by the real-time cell electronic sensing, xCELLigence System (RT-CES) on two different hepatocellular carcinoma cell lines (Huh7, HepG2). This technology is based on proprietary microelectronic cell sensor arrays that are integrated in the bottom of the microtiter plates (96-well E-plate). When cells are cultured in a well, impedance is measured between sensor electrodes and the attached cells that act as insulators, which is converted into cell index number.

Huh7 [6] = experiment: as above; format: cell-based, human; details: Huh7, impedance monitored for 48 h
Experimental: as §3, §4

[7] = Solubility (data not shown); format: physicochemical
PDI = PDI (Homo sapiens, UniProt P07237); experiment: Resonant waveguide optical biosensor binding assay; set-up: purchased Sino Biological Inc., Beijing, China; details: immobilized human recombinant protein, curve fitting
Sequence of PDI (P07237 18-508): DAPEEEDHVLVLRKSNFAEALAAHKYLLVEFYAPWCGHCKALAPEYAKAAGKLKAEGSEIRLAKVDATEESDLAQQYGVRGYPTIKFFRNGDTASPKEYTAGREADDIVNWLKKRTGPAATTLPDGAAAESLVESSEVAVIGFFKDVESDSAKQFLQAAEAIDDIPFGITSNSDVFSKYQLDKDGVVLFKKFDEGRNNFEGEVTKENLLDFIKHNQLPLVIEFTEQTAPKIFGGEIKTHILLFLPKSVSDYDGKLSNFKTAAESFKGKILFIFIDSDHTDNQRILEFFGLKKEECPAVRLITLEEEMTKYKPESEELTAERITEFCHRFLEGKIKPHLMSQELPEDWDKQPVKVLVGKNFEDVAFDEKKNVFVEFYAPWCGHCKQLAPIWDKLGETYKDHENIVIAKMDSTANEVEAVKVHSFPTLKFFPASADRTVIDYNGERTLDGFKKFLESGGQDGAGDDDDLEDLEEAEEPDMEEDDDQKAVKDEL
Experimental: Protein immobilization was accomplished by applying 10 μL of 50 μg/mL human PDI (Sino Biological Inc., Beijing, China) or 50 μg/mL human HSP70 (Sino Biological) or 100 μg/mL human HSP90 (Sino Biological) in 20 mM sodium acetate pH 5.5 into a preactivated 384-well biochemical plate (Perkin Elmer) and incubating overnight at 4°C. The microplates were subsequently washed three times with assay buffer (PBS, pH 7.4/0.005% Tween 20/3% DMSO) and, after 25 minutes thermal equilibration, a baseline reading was taken in the Enspire Multimode Plate Reader (Perkin Elmer). Finally, 15 μL assay buffer was added including different concentrations of Ac-915 or Ac-2010. The Enspire response is measured as a shift in reflected wavelength and is expressed in picometers (pm). The affinity (KD) was calculated using a curve fitting method.
Direct biomolecular interactions were determined between human recombinant and purified HSP70, HSP90, PDI proteins and Ac-915 and Ac-2010 with resonant waveguide optical biosensor technology in a biochemical binding assay. The technology is based on a microplate with resonant waveguide optical biosensors integrated into each well and a high throughput screening-compatible optical reader (Enspire system, Perkin Elmer). The biochemical interaction between the small molecule and the protein was measured as a shift in reflected wavelength and is expressed in picometers (pm). […]

CC(C)c1cccc(C(C)C)c1N1C(=O)c2c(F)c(F)c(F)c(NC(=O)NC(=O)CCl)c2C1=O [Ac-2010]
EC50 (HepG2 [1]): 1.05 µM
EC50 (Huh7 [2]): 0.94 µM
EC50 (Hep3B [3]): 0.54 µM
Intracellular ROS induction (Hep3B [4]): induce intracellular reactive oxygen species
Inhibition of cell migration (HepG2 cell migration; 250 nM): inhibited migration
Inhibition of cell migration (HepG2 cell migration; higher concentration, 2 h after administration): completely inhibited cell migration
Cytotoxicity at the migration-inhibiting concentration (HepG2 [5]; 250 nM, HepG2 cells): no cytotoxicity could be detected
Cytotoxic effect in real time (cell index) (HepG2 [5]): micromolar cytotoxic effects
Cytotoxic effect in real time (cell index) (Huh7 [6]): micromolar cytotoxic effects
Solubility compared with Ac-915 [7]: better solubility
Kd (PDI): ~6 µM

CC(C)c1cccc(C(C)C)c1N1C(=O)c2c(F)c(F)c(F)c(N[C@@H]3C=CS(=O)(=O)C3)c2C1=O [Ac-915, 2-[2,6-bis(propane-2-yl)phenyl]-4-{[(3R)-1,1-dioxo-2,3-dihydro-thiophene-3-yl]amino}-5,6,7-trifluoro-2,3-dihydro-1H-isoindole-1,3-dione]
EC50 (HepG2 [1]): 1.21 µM
EC50 (Huh7 [2]): 1.66 µM
EC50 (Hep3B [3]): 0.76 µM
Intracellular ROS induction (Hep3B [4]): induce intracellular reactive oxygen species
Cytotoxic effect in real time (cell index) (HepG2 [5]): micromolar cytotoxic effects
Cytotoxic effect in real time (cell index) (Huh7 [6]): micromolar cytotoxic effects
Kd (PDI): ~10.5 µM
